{"source": "patent US20260070895A1", "about": "“CRYSTALLINE FORMS” (QUIMATRYX, S.L., priority 2022, published 2026)", "format_in_all_cases": "physicochemical", "key": {"[1]": {"assay": "Photostability at solid state (chemical purity by HPLC after illumination)", "conditions": "solid-state, unsealed clear glass bottles, forced illumination", "experimental": "(§1) The method for determining purity by HPLC—used throughout these examples—used the following parameters:\n(§2) The photostability of novel crystalline forms of QTX125 was assessed at solid state and in solution. Where ‘forced illumination’ conditions were used, samples were illuminated at 12 Klux/hour and 2.8 UV W/m^2/hour. Samples were stored at a temperature of 30° C. Following incubation, the chemical purity of QTX125 was measured by HPLC.\n(§3) The following index is provided to aid navigation of the data presented in Tables 3.1.1 to 3.3.6: • 3.1.x—Assessment of the photostability of QTX125 Form 2. • 3.2.x—Assessment of the photostability of amorphous QTX125. • 3.3.x—Assessment of the photostability of the QTX125 1:2 L-Lysine adduct. • 3.x.1—Samples (at solid state) stored in unsealed clear glass bottles, subject to forced illumination. • 3.x.2—Samples (at solid state) sealed under nitrogen in clear glass bottles, subject to forced illumination. • 3.x.3—Samples (at solid state) sealed under nitrogen in amber glass bottles, illuminated under ambient laboratory conditions • 3.x.4—Samples (at solid state) sealed under nitrogen in amber glass bottles, subject to forced illumination. • 3.x.5—Samples (in solution) sealed under nitrogen in amber glass bottles, illuminated under ambient laboratory conditions. • 3.x.6—Samples (in solution) sealed under nitrogen in amber glass bottles, subject to forced illumination."}, "[2]": {"assay": "Photostability in solution (THF and water), HPLC", "conditions": "in solution (THF and water), sealed under nitrogen in amber glass bottles; for degradation (in words): up to 171 hours", "experimental": "as §1, §2, §3"}, "[3]": {"assay": "Aqueous solubility at 37° C. (HPLC of filtered suspension)", "conditions": "37° C.", "experimental": "The solubility of novel crystalline forms of QTX125 was assessed in the following aqueous solutions: (i) phosphate buffer, pH 3.5, 0.9% w/v sodium chloride; (ii) phosphate buffer, pH 6.5, 0.9% w/v sodium chloride; (iii) acetate buffer, pH 4.5, 0.9% w/v sodium chloride; (iv) citro-phosphate buffer, pH 4.5, 0.9% w/v sodium chloride; (v) sodium chloride, 0.9% w/v and (vi) deionised water. All assays were completed at 37° C.\nIn brief, 30 mg QTX125 was dispensed into vessels followed by 5 mL of the appropriate aqueous buffer. Mixtures were suspended by agitation and heated to 37° C. At various fixed intervals, an 0.4 mL aliquot of the suspension was removed, filtered and diluted for examination by HPLC. A single HPLC reference sample was used."}, "[4]": {"conditions": "ambient laboratory conditions, 0 hours"}, "[5]": {"conditions": "ambient laboratory conditions, 3 hours"}, "[6]": {"conditions": "ambient laboratory conditions, 26 hours"}, "[7]": {"conditions": "ambient laboratory conditions, 171 hours"}, "[8]": {"conditions": "ambient laboratory conditions, 171 hours, listed as Form 2"}, "[9]": {"conditions": "forced illumination, 171 hours, listed as Form 2"}, "[10]": {"conditions": "0.9% w/v sodium chloride solution, saline or isotonic, thermodynamic from solid, buffer (v) sodium chloride, 0.9% w/v, read-out: concentration of QTX125 (solubility)"}, "[11]": {"conditions": "acetate buffer with 0.9% w/v sodium chloride, aqueous buffer, thermodynamic from solid, buffer (iii) acetate buffer, pH 4.5, 0.9% w/v sodium chloride, read-out: concentration of QTX125 (solubility)"}, "[12]": {"conditions": "citro-phosphate buffer with 0.9% w/v sodium chloride, aqueous buffer, thermodynamic from solid, buffer (iv) citro-phosphate buffer, pH 4.5, 0.9% w/v sodium chloride, read-out: concentration of QTX125 (solubility)"}, "[13]": {"conditions": "phosphate buffer with 0.9% w/v sodium chloride, aqueous buffer, thermodynamic from solid, buffer (i) phosphate buffer, pH 3.5, 0.9% w/v sodium chloride, read-out: concentration of QTX125 (solubility)"}, "[14]": {"conditions": "phosphate buffer with 0.9% w/v sodium chloride, aqueous buffer, thermodynamic from solid, buffer (ii) phosphate buffer, pH 6.5, 0.9% w/v sodium chloride, read-out: concentration of QTX125 (solubility)"}, "[15]": {"conditions": "thermodynamic from solid, buffer (vi) deionised water, read-out: concentration of QTX125 (solubility)"}}, "note": "Read-outs that look alike come from different tables or passages of the source."}
{"smiles": "O=C(NO)c1ccc(CNC(=O)c2[nH]c(-c3ccc(O)cc3)cc2-c2ccoc2)cc1", "note": "[QTX125 Form 2, 3-(3-Furyl)-N-{4-[(hydroxyamino)carbonyl]benzyl}-5-(4-hydroxyphenyl)-1H-pyrrole-2-carboxamide]", "values": [{"measurement": "HPLC peak area, RRT 1.04", "setting": "[1]; 171 hours", "value": 9.15, "unit": "%"}, {"measurement": "HPLC peak area, RRT 1.12", "setting": "[1]; 171 hours", "value": 0.52, "unit": "%"}, {"measurement": "degradation (in words)", "setting": "[1]; up to 171 hours", "value": "degrade to two principal components"}, {"measurement": "HPLC peak area, QTX125 RRT 1.00", "setting": "[2]; [4]", "value": 98.21, "unit": "%"}, {"measurement": "HPLC peak area, RRT 1.04", "setting": "[2]; [4]", "value": 0.98, "unit": "%"}, {"measurement": "HPLC peak area, QTX125 RRT 1.00", "setting": "[2]; [5]", "value": 97.50, "unit": "%"}, {"measurement": "HPLC peak area, RRT 1.04", "setting": "[2]; [5]", "value": 1.06, "unit": "%"}, {"measurement": "HPLC peak area, QTX125 RRT 1.00", "setting": "[2]; [6]", "value": 97.65, "unit": "%"}, {"measurement": "HPLC peak area, RRT 1.04", "setting": "[2]; [6]", "value": 0.93, "unit": "%"}, {"measurement": "HPLC peak area, QTX125 RRT 1.00", "setting": "[2]; [7]", "value": 91.10, "unit": "%"}, {"measurement": "HPLC peak area, RRT 1.04", "setting": "[2]; [7]", "value": 4.81, "unit": "%"}, {"measurement": "HPLC peak area, RRT 1.12", "setting": "[2]; [7]", "value": 0.83, "unit": "%"}, {"measurement": "HPLC peak area, QTX125 RRT 1.00", "setting": "[2]; [8]", "value": 91.10, "unit": "%"}, {"measurement": "HPLC peak area, RRT 1.04", "setting": "[2]; [8]", "value": 4.81, "unit": "%"}, {"measurement": "HPLC peak area, RRT 1.12", "setting": "[2]; [8]", "value": 0.83, "unit": "%"}, {"measurement": "degradation (in words)", "setting": "[2]; ambient laboratory conditions", "value": "degrade"}, {"measurement": "HPLC peak area, QTX125 RRT 1.00", "setting": "[2]; forced illumination, 0 hours", "value": 98.21, "unit": "%"}, {"measurement": "HPLC peak area, RRT 1.04", "setting": "[2]; forced illumination, 0 hours", "value": 0.98, "unit": "%"}, {"measurement": "HPLC peak area, QTX125 RRT 1.00", "setting": "[2]; forced illumination, 3 hours", "value": 97.30, "unit": "%"}, {"measurement": "HPLC peak area, RRT 1.04", "setting": "[2]; forced illumination, 3 hours", "value": 1.07, "unit": "%"}, {"measurement": "HPLC peak area, QTX125 RRT 1.00", "setting": "[2]; forced illumination, 26 hours", "value": 96.27, "unit": "%"}, {"measurement": "HPLC peak area, RRT 1.04", "setting": "[2]; forced illumination, 26 hours", "value": 1.09, "unit": "%"}, {"measurement": "HPLC peak area, QTX125 RRT 1.00", "setting": "[2]; forced illumination, 171 hours", "value": 81.65, "unit": "%"}, {"measurement": "HPLC peak area, RRT 1.04", "setting": "[2]; forced illumination, 171 hours", "value": 3.60, "unit": "%"}, {"measurement": "HPLC peak area, RRT 1.12", "setting": "[2]; forced illumination, 171 hours", "value": 0.86, "unit": "%"}, {"measurement": "HPLC peak area, QTX125 RRT 1.00", "setting": "[2]; [9]", "value": 81.65, "unit": "%"}, {"measurement": "HPLC peak area, RRT 1.04", "setting": "[2]; [9]", "value": 3.60, "unit": "%"}, {"measurement": "HPLC peak area, RRT 1.12", "setting": "[2]; [9]", "value": 0.86, "unit": "%"}, {"measurement": "degradation (in words)", "setting": "[2]; forced illumination", "value": "degrade"}, {"measurement": "solubility at 1 h", "setting": "[3]; [10]", "value": 0.68, "unit": "µg/mL"}, {"measurement": "solubility at 4 h", "setting": "[3]; [10]", "value": 0.26, "unit": "µg/mL"}, {"measurement": "solubility at 7 h", "setting": "[3]; 0.9% w/v sodium chloride solution, saline or isotonic, thermodynamic from solid, buffer (v) sodium chloride, 0.9% w/v, 7 hours, read-out: concentration of QTX125 (solubility)", "value": 0.22, "unit": "µg/mL"}, {"measurement": "solubility at 24 h", "setting": "[3]; [10]", "value": 0.81, "unit": "µg/mL"}, {"measurement": "solubility at 1 h", "setting": "[3]; [11]", "value": 0.25, "unit": "µg/mL"}, {"measurement": "solubility at 4 h", "setting": "[3]; [11]", "value": 0.29, "unit": "µg/mL"}, {"measurement": "solubility at 7 h", "setting": "[3]; acetate buffer with 0.9% w/v sodium chloride, aqueous buffer, thermodynamic from solid, buffer (iii) acetate buffer, pH 4.5, 0.9% w/v sodium chloride, 7 hours, read-out: concentration of QTX125 (solubility)", "value": 0.19, "unit": "µg/mL"}, {"measurement": "solubility at 24 h", "setting": "[3]; [11]", "value": 0.5, "unit": "µg/mL"}, {"measurement": "solubility", "setting": "[3]; aqueous buffers (i) to (v), aqueous buffer, thermodynamic from solid, buffers (i) to (v), 1 to 24 hours, read-out: concentration values range (solubility)", "value": "0.15 to 1.76", "unit": "µg/mL"}, {"measurement": "concentration of QTX125 (solubility)", "setting": "[3]; buffer (vi) deionised water, 7 hours", "value": 27.82, "unit": "µg/mL"}, {"measurement": "solubility (in words)", "setting": "[3]; buffers (i) to (v)", "value": "very low"}, {"measurement": "solubility at 1 h", "setting": "[3]; [12]", "value": 0.32, "unit": "µg/mL"}, {"measurement": "solubility at 4 h", "setting": "[3]; [12]", "value": 0.17, "unit": "µg/mL"}, {"measurement": "solubility at 7 h", "setting": "[3]; citro-phosphate buffer with 0.9% w/v sodium chloride, aqueous buffer, thermodynamic from solid, buffer (iv) citro-phosphate buffer, pH 4.5, 0.9% w/v sodium chloride, 7 hours, read-out: concentration of QTX125 (solubility)", "value": 0.17, "unit": "µg/mL"}, {"measurement": "solubility at 24 h", "setting": "[3]; [12]", "value": 0.4, "unit": "µg/mL"}, {"measurement": "PXRD analysis of the solid recovered at 24 hours", "setting": "[3]; deionised water (vi)", "value": "confirmed the entity as Form 2"}, {"measurement": "solubility at 1 h", "setting": "[3]; [13]", "value": 0.77, "unit": "µg/mL"}, {"measurement": "solubility at 4 h", "setting": "[3]; [13]", "value": 0.15, "unit": "µg/mL"}, {"measurement": "solubility at 7 h", "setting": "[3]; phosphate buffer with 0.9% w/v sodium chloride, aqueous buffer, thermodynamic from solid, buffer (i) phosphate buffer, pH 3.5, 0.9% w/v sodium chloride, 7 hours, read-out: concentration of QTX125 (solubility)", "value": 0.5, "unit": "µg/mL"}, {"measurement": "solubility at 24 h", "setting": "[3]; [13]", "value": 1.76, "unit": "µg/mL"}, {"measurement": "solubility at 1 h", "setting": "[3]; [14]", "value": 0.33, "unit": "µg/mL"}, {"measurement": "solubility at 4 h", "setting": "[3]; [14]", "value": 0.15, "unit": "µg/mL"}, {"measurement": "solubility at 7 h", "setting": "[3]; phosphate buffer with 0.9% w/v sodium chloride, aqueous buffer, thermodynamic from solid, buffer (ii) phosphate buffer, pH 6.5, 0.9% w/v sodium chloride, 7 hours, read-out: concentration of QTX125 (solubility)", "value": 0.34, "unit": "µg/mL"}, {"measurement": "solubility at 24 h", "setting": "[3]; [14]", "value": 0.63, "unit": "µg/mL"}, {"measurement": "solubility at 1 h", "setting": "[3]; [15]", "value": 17.8, "unit": "µg/mL"}, {"measurement": "solubility at 4 h", "setting": "[3]; [15]", "value": 22.4, "unit": "µg/mL"}, {"measurement": "solubility at 24 h", "setting": "[3]; [15]", "value": 16.6, "unit": "µg/mL"}, {"measurement": "solubility at 7 h", "setting": "[3]; thermodynamic from solid, deionised water (buffer vi), following 7 hours of incubation, read-out: peak solubility", "value": 27.8, "unit": "µg/mL"}]}
